Results reported in patent US20020091095A1, “Modulation of Fas and FasL expression” (priority 1999, published 2002).

Tests used:
FasL [1] = experiment: FasL expression at the cell surface by flow cytometry, UMUC-3 cells; assay type: cell-based, human; details: UMUC-3 bladder cancer cells, 100 μg/ml sequence, 48 h, treated vs control cells
Experimental: (§1) Cancer cells and PBMCs were seeded in 6 well flat-bottom microplates and were maintained at 37° C. in a 5% CO2 atmosphere. Unless stated otherwise, 2×10^5 cells/ml were incubated for 48 h with 0 μg/ml (control) or 100 μg/ml ([…]) (treated) of the sequences.
(§2) Fas and FasL expression were measured by flow cytometry using anti-Fas FITC-conjugated monoclonal antibodies and anti-FasL PE-conjugated monoclonal antibodies in a FACScalibur Flow Cytometer (Becton Dickinson, San Jose, Calif., USA) using the CELLQuest program (Becton Dickinson).
(§3) Results are expressed as percentage (%) increase in the expression of Fas and of FasL measured on treated cells compared to control cells.
(§4) UMUC-3 bladder cancer cells are a P-glycoprotein overexpressing human cell line.

Fas [2] = experiment: Fas expression at the cell surface by flow cytometry, T-24 cells; assay type: cell-based, human; details: T-24 bladder cancer cells, 100 μg/ml sequence, 48 h, treated vs control cells
Experimental: as §1, §2, §3
(§5) T-24 bladder cancer cells are a p53 mutated human cell line T-24 cells (1.0×10^5 cells/ml) were incubated with the 6 base sequences shown in Table 4.

FasL [3] = experiment: FasL expression at the cell surface by flow cytometry, PBMCs; assay type: cell-based, human; details: 100 μg/ml sequence, 48 h, treated vs control cells
Experimental: (§6) Peripheral blood mononuclear cells (hereinafter, “PBMCs”) were isolated from human blood by Ficoll-Hypaque (Amersham Pharmacia Biotech, Baie d'Urfée, Québec, Canada) density gradient centrifugation.
as §1, §2, §3

FasL [4] = experiment: FasL expression at the cell surface by flow cytometry, SK-OV-3 cells; assay type: cell-based, human; details: SK-OV-3 ovarian cancer cells, 100 μg/ml sequence, 48 h, treated vs control cells
Experimental: as §1, §2, §3
(§7) SK-OV-3 ovarian cancer cells are a p53 mutated, p21/waf-1/Cip deleted, p15^ink4B,p16^ink4 deleted metastatic human solid tumor model.

Fas [5] = experiment: Fas expression at the cell surface by flow cytometry, MCF-7 cells; assay type: cell-based, human; details: MCF-7 breast cancer cells, 100 μg/ml sequence, 48 h, treated vs control cells
Experimental: as §1, §2, §3
(§8) MCF-7 human breast cancer cells are a caspase-3 negative, estrogen-dependent human solid tumor model.

FasL [6] = experiment: FasL expression at the cell surface by flow cytometry, T-24 cells; assay type: cell-based, human; details: T-24 bladder cancer cells, 100 μg/ml sequence, 48 h, treated vs control cells
Experimental: as §1, §2, §3, §5

FasL [7] = experiment: FasL expression at the cell surface by flow cytometry, Jurkat cells; assay type: cell-based; details: Jurkat human leukemia T cells, 100 μg/ml sequence, 48 h, treated vs control cells
Experimental: as §1, §2, §3
(§9) Jurkat human leukemia T cells are an atypical multi-drug resistant human suspension tumor cell model.

FasL [8] = experiment: FasL expression at the cell surface by flow cytometry, OVCAR-3 cells; assay type: cell-based, human; details: OVCAR-3 ovarian cancer cells, 100 μg/ml sequence, 48 h, treated vs control cells
Experimental: as §1, §2, §3
(§10) OVCAR-3 ovarian cancer cells are a p53 mutated, p21/waf-1/Cip deleted, metastatic human solid tumor model.

Fas [9] = experiment: Fas expression at the cell surface by flow cytometry, LNCaP cells; assay type: cell-based, human; details: LNCaP prostate cancer cells, 100 μg/ml sequence, 48 h, treated vs control cells
Experimental: as §1, §2, §3
(§11) LNCaP prostate cancer cells are a TGF-beta 1 receptor negative, […], metastatic human solid tumor model.

Fas [10] = experiment: Fas expression at the cell surface by flow cytometry, SK-OV-3 cells; assay type: cell-based, human; details: SK-OV-3 ovarian cancer cells, 100 μg/ml sequence, 48 h, treated vs control cells
Experimental: as §1, §2, §3, §7

Fas [11] = experiment: Fas expression at the cell surface by flow cytometry, Jurkat cells; assay type: cell-based; details: Jurkat human leukemia T cells, 100 μg/ml sequence, 48 h, treated vs control cells
Experimental: as §1, §2, §3, §9

Fas [12] = experiment: Fas expression at the cell surface by flow cytometry, UMUC-3 cells; assay type: cell-based, human; details: UMUC-3 bladder cancer cells, 100 μg/ml sequence, 48 h, treated vs control cells
Experimental: as §1, §2, §3, §4

FasL [13] = experiment: FasL expression at the cell surface by flow cytometry, MCF-7 cells; assay type: cell-based, human; details: MCF-7 breast cancer cells, 100 μg/ml sequence, 48 h, treated vs control cells
Experimental: as §1, §2, §3, §8

Fas [14] = experiment: Fas expression at the cell surface by flow cytometry, OVCAR-3 cells; assay type: cell-based, human; details: OVCAR-3 ovarian cancer cells, 100 μg/ml sequence, 48 h, treated vs control cells
Experimental: as §1, §2, §3, §10

Fas [15] = experiment: Fas expression at the cell surface by flow cytometry, PBMCs; assay type: cell-based, human; details: 100 μg/ml sequence, 48 h, treated vs control cells
Experimental: as §6, §1, §2, §3

FasL [16] = experiment: FasL expression at the cell surface by flow cytometry, LNCaP cells; assay type: cell-based, human; details: LNCaP prostate cancer cells, 100 μg/ml sequence, 48 h, treated vs control cells
Experimental: as §1, §2, §3, §11

Row | Sequence | % INCREASE FasL (FasL [1]) [%] | % INCREASE Fas (Fas [2]) [%] | % INCREASE FasL (FasL [3]) [%] | % INCREASE FasL (FasL [4]) [%] | % INCREASE Fas (Fas [5]) [%] | % INCREASE FasL (FasL [6]) [%] | % INCREASE FasL (FasL [7]) [%] | % INCREASE FasL (FasL [8]) [%] | % INCREASE Fas (Fas [9]) [%] | % INCREASE Fas (Fas [10]) [%] | % INCREASE Fas (Fas [11]) [%] | % INCREASE Fas (Fas [12]) [%] | % INCREASE FasL (FasL [13]) [%] | % INCREASE Fas (Fas [14]) [%] | % INCREASE Fas (Fas [15]) [%] | % INCREASE FasL (FasL [16]) [%]
1 | AAGTAA [SEQ ID NO:7] | −1 | 16 | −26 | −22 | 12 | −10 | −21 | −2 | 0 | −12 | −4 | 6 | 21 | 16 | 13 | −16
2 | ATGTAT [SEQ ID NO:10] | 95 | 90 | 457 | 33 | 129 | 150 | 393 | 114 | 44 | 34 | 246 | 42 | 214 | 93 | 377 | 68
3 | CCGTCC [SEQ ID NO:8] | 149 | 282 | 1147 | 32 | 200 | 459 | 151 | 95 | 0 | 58 | 107 | 55 | 322 | 83 | 1046 | 311
4 | CTGTCT [SEQ ID NO:11] | 156 | 107 | 476 | 26 | 73 | 165 | 413 | 93 | 17 | 15 | 203 | 45 | 128 | 52 | 310 | 55
5 | GGAAGG [SEQ ID NO:14] | 8 | 46 | 162 | −31 | 62 | 14 | 88 | 1 | 26 | −15 | 67 | 1 | 84 | 15 | 112 | −4
6 | GGCCGG [SEQ ID NO:15] | 58 | 56 | −29 | −27 | 63 | 18 | 41 | −2 | 12 | 0 | 75 | 23 | 78 | 19 | 6 | −4
7 | GGTGGG [SEQ ID NO:4] | 113 | 106 | 59 | −17 | 106 | 29 | 22 | 14 | 21 | −1 | 61 | 62 | 110 | 41 | 57 | 8
8 | GGTTGG [SEQ ID NO:13] | 98 | 75 | −32 | −3 | 99 | 25 | 86 | 10 | 23 | 16 | 99 | 47 | 83 | 22 | −3 | −3
9 | GTGTGT [SEQ ID NO:2] | 154 | 93 | 99 | 24 | 155 | 77 | 43 | 69 | 34 | 60 | 52 | 72 | 135 | 77 | 94 | 5
10 | TCGTTC [SEQ ID NO:12] | 112 | 105 | 847 | −3 | 56 | 74 | 75 | 224 | 111 | 9 | 121 | 47 | 98 | 126 | 597 | 171
11 | TGGTTG [SEQ ID NO:9] | 300 | 180 | 1322 | 53 | 255 | 397 | 952 | 270 | 184 | 63 | 362 | 143 | 481 | 221 | 1043 | 241
12 | TGTGTG [SEQ ID NO:1] | 112 | 84 | 260 | 37 | 122 | 213 | 93 | 70 | 29 | 49 | 52 | 72 | 121 | 64 | 126 | 40
13 | TTGTTT [SEQ ID NO:6] | 132 | 116 | 441 | 24 | 143 | 152 | 140 | 98 | 40 | 41 | 126 | 57 | 159 | 65 | 338 | 73
14 | TTTGTT [SEQ ID NO:3] | 231 | 279 | 1528 | 103 | 361 | 549 | 497 | 341 | 199 | 108 | 258 | 108 | 528 | 193 | 1165 | 344
